The supplement of paper PMC11061612

Assays:
Capivasertib = compound: C1CN(CCC1(C(=O)N[C@@H](CCO)C2=CC=C(C=C2)Cl)N)C3=NC=NC4=C3C=CN4 [Capivasertib]; conditions: max 10 µM
Outline: (§1)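 Cancer cell lines were plated in 1536-well plates in 7.5 μl of DMEM/F12 or RPMI with 10% FBS and kept 24 hours at 37°C and 5% CO2 before 72 hours of dosing, with final DMSO typically 0.2%. CellTiter-Glo 2.0 luminescence measured viability, scaled between blank-well and DMSO-well means. Dose responses were fitted to a two-parameter logistic curve with a non-linear mixed effects model. This fit gives the single-agent IC50.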

AZD1775 = compound: C=CCn1c(=O)c2cnc(Nc3ccc(N4CCN(C)CC4)cc3)nc2n1-c1cccc(C(C)(C)O)n1 [AZD1775]; conditions: max 3 µM
Outline: as §1

Trametinib = compound: CC(=O)Nc1cccc(-n2c(=O)n(C3CC3)c(=O)c3c(Nc4ccc(I)cc4F)n(C)c(=O)c(C)c32)c1 [Trametinib]; conditions: max 1 µM
Outline: as §1

Palbociclib = compound: CC(=O)c1c(C)c2cnc(Nc3ccc(N4CCNCC4)cn3)nc2n(C2CCCC2)c1=O [Palbociclib]; conditions: max 10 µM
Outline: as §1

AZD1390 = compound: CC(C)n1c(=O)n(C)c2cnc3cc(F)c(-c4ccc(OCCCN5CCCCC5)nc4)cc3c21 [AZD1390]; conditions: max 0.3 µM
Outline: as §1

Venetoclax = compound: CC1(C)CCC(CN2CCN(c3ccc(C(=O)NS(=O)(=O)c4ccc(NCC5CCOCC5)c([N+](=O)[O-])c4)c(Oc4cnc5[nH]ccc5c4)c3)CC2)=C(c2ccc(Cl)cc2)C1 [Venetoclax]; conditions: max 1 µM
Outline: as §1

Dasatinib = compound: CC1=C(C(=CC=C1)Cl)NC(=O)C2=CN=C(S2)NC3=CC(=NC(=N3)C)N4CCN(CC4)CCO [Dasatinib]; conditions: max 2 µM
Outline: as §1

SG3199 = compound: CC1=CN2[C@@H](C1)C=NC3=CC(=C(C=C3C2=O)OC)OCCCCCOC4=C(C=C5C(=C4)N=C[C@@H]6CC(=CN6C5=O)C)OC [SG3199]; conditions: max 0.001 µM
Outline: as §1

AZD2811 = compound: CCN(CCO)CCCOc1ccc2c(Nc3cc(CC(=O)Nc4cccc(F)c4)[nH]n3)ncnc2c1 [AZD2811]; conditions: max 1 µM
Outline: as §1

SN-38 = compound: CCc1c2c(nc3ccc(O)cc13)-c1cc3c(c(=O)n1C2)COC(=O)[C@]3(O)CC [SN-38]; conditions: max 0.3 µM
Outline: as §1

AZD0156 = compound: CN(C)CCCOc1ccc(-c2ccc3ncc4c(c3c2)n(C2CCOCC2)c(=O)n4C)cn1 [AZD0156]; conditions: max 3 µM
Outline: as §1

AZD4320 = compound: CN(CC[C@H](CSC1=CC=CC=C1)NC2=C(C=C(C=C2)S(=O)(=O)NC(=O)C3=CC=C(C=C3)N4CCC(CC4)[C@H](C5=CC=CC=C5C6=CC=C(C=C6)Cl)O)S(=O)(=O)C(F)(F)F)CCO [AZD4320]; conditions: max 1 µM
Outline: as §1

Alisertib = compound: COc1cc(Nc2ncc3c(n2)-c2ccc(Cl)cc2C(c2c(F)cccc2OC)=NC3)ccc1C(=O)O [Alisertib]; conditions: max 10 µM
Outline: as §1

Gefitinib = compound: COc1cc2ncnc(Nc3ccc(F)c(Cl)c3)c2cc1OCCCN1CCOCC1 [Gefitinib]; conditions: max 10 µM
Outline: as §1

Prexasertib = compound: COc1cccc(OCCCN)c1-c1cc(Nc2cnc(C#N)cn2)n[nH]1 [Prexasertib]; conditions: max 1 µM
Outline: as §1

Doxorubicin = compound: COc1cccc2c1C(=O)c1c(O)c3c(c(O)c1C2=O)C[C@@](O)(C(=O)CO)C[C@@H]3O[C@H]1C[C@H](N)[C@H](O)[C@H](C)O1 [Doxorubicin]; conditions: max 1 µM
Outline: as §1

AZD5153 = compound: COc1nnc2ccc(N3CCC(c4ccc(OCCN5CCN(C)C(=O)[C@H]5C)cc4)CC3)nn12 [AZD5153]; conditions: max 1 µM
Outline: as §1

Lapatinib = compound: CS(=O)(=O)CCNCc1ccc(-c2ccc3ncnc(Nc4ccc(OCc5cccc(F)c5)c(Cl)c4)c3c2)o1 [Lapatinib]; conditions: max 10 µM
Outline: as §1

AZD8186 = compound: C[C@@H](Nc1cc(F)cc(F)c1)c1cc(C(=O)N(C)C)cc2c(=O)cc(N3CCOCC3)oc12 [AZD8186]; conditions: max 3 µM
Outline: as §1

Crizotinib = compound: C[C@@H](Oc1cc(-c2cnn(C3CCNCC3)c2)cnc1N)c1c(Cl)ccc(F)c1Cl [Crizotinib]; conditions: max 10 µM
Outline: as §1

Savolitinib = compound: C[C@@H](c1ccc2nccn2c1)n1nnc2ncc(-c3cnn(C)c3)nc21 [Savolitinib]; conditions: max 1 µM
Outline: as §1

AZD6738 = compound: C[C@@H]1COCCN1C2=NC(=NC(=C2)C3(CC3)[S@](=N)(=O)C)C4=C5C=CNC5=NC=C4 [AZD6738]; conditions: max 10 µM
Outline: as §1

AZD5991 = compound: Cc1c2c(nn1C)CSCc1cc(n(C)n1)CSc1cc(c3ccccc3c1)OCCCc1c(C(=O)O)n(C)c3c-2c(Cl)ccc13 [AZD5991]; conditions: max 1 µM
Outline: as §1

AZD7648 = compound: Cc1cc2ncnn2cc1Nc1ncc2c(n1)n(C1CCOCC1)c(=O)n2C [AZD7648]; conditions: max 10 µM
Outline: as §1

Taselisib = compound: Cc1nc(-c2cn3c(n2)-c2ccc(-c4cnn(C(C)(C)C(N)=O)c4)cc2OCC3)n(C(C)C)n1 [Taselisib]; conditions: max 10 µM
Outline: as §1

Selumetinib = compound: Cn1cnc2c(F)c(Nc3ccc(Br)cc3Cl)c(C(=O)NOCCO)cc21 [Selumetinib]; conditions: max 10 µM
Outline: as §1

Olaparib = compound: O=C(c1cc(Cc2n[nH]c(=O)c3ccccc23)ccc1F)N1CCN(C(=O)C2CC2)CC1 [Olaparib]; conditions: max 10 µM
Outline: as §1

MK-2206 = compound: NC1(c2ccc(-c3nc4ccn5c(=O)[nH]nc5c4cc3-c3ccccc3)cc2)CCC1 [MK-2206]; conditions: max 10 µM
Outline: as §1

Cell Line | IC50, cell viability 72 h (Capivasertib) [µM] | IC50, cell viability 72 h (AZD1775) [nM] | IC50, cell viability 72 h (Trametinib) [nM] | IC50, cell viability 72 h (Palbociclib) [µM] | IC50, cell viability 72 h (AZD1390) [nM] | IC50, cell viability 72 h (Venetoclax) [nM] | IC50, cell viability 72 h (Dasatinib) [nM] | IC50, cell viability 72 h (SG3199) [nM] | IC50, cell viability 72 h (AZD2811) [nM] | IC50, cell viability 72 h (SN-38) [nM] | IC50, cell viability 72 h (AZD0156) [nM] | IC50, cell viability 72 h (AZD4320) [nM] | IC50, cell viability 72 h (Alisertib) [µM] | IC50, cell viability 72 h (Gefitinib) [µM] | IC50, cell viability 72 h (Prexasertib) [nM] | IC50, cell viability 72 h (Doxorubicin) [nM] | IC50, cell viability 72 h (AZD5153) [nM] | IC50, cell viability 72 h (Lapatinib) [µM] | IC50, cell viability 72 h (AZD8186) [nM] | IC50, cell viability 72 h (Crizotinib) [µM] | IC50, cell viability 72 h (Savolitinib) [nM] | IC50, cell viability 72 h (AZD6738) [µM] | IC50, cell viability 72 h (AZD5991) [nM] | IC50, cell viability 72 h (AZD7648) [µM] | IC50, cell viability 72 h (Taselisib) [nM] | IC50, cell viability 72 h (Selumetinib) [µM] | IC50, cell viability 72 h (Olaparib) [µM] | IC50, cell viability 72 h (MK-2206) [µM]
MDA-MB-361 (Breast Carcinoma) | 9.81 | 515 | > 1000 | > 10 | > 300 | > 1000 | > 2000 | > 1 | > 1000 | 275 | > 3000 | > 1000 | > 10 | > 10 | 6.52 | > 1000 | > 1000 | > 10 | > 3000 | > 10 | > 1000 | 2.18 | 579 | > 10 | 103 | > 10 | > 10 | –
MFE-296 (Endometrial Carcinoma) | > 10 | > 3000 | > 1000 | > 10 | > 300 | > 1000 | > 2000 | > 1 | > 1000 | 158 | > 3000 | > 1000 | > 10 | > 10 | 385 | > 1000 | > 1000 | > 10 | > 3000 | > 10 | > 1000 | > 10 | > 1000 | > 10 | > 10000 | > 10 | > 10 | > 10
NOS-1 (Osteosarcoma) | > 10 | 757 | > 1000 | > 10 | > 300 | > 1000 | 192 | > 1 | > 1000 | > 300 | > 3000 | > 1000 | > 10 | > 10 | > 1000 | > 1000 | 119 | > 10 | > 3000 | 7.98 | > 1000 | 7.74 | 361 | > 10 | 1440 | > 10 | > 10 | –
OVCA420 (Ovarian Carcinoma) | > 10 | > 3000 | 156 | > 10 | > 300 | > 1000 | 265 | > 1 | > 1000 | > 300 | > 3000 | > 1000 | > 10 | 4.45 | 178 | > 1000 | 126 | 1.33 | > 3000 | > 10 | > 1000 | > 10 | > 1000 | > 10 | 989 | 7.91 | > 10 | > 10
SK-ES-1 (Ewing's Sarcoma) | > 10 | 618 | > 1000 | 2.39 | > 300 | > 1000 | > 2000 | > 1 | 17.9 | 1.6 | > 3000 | 150 | 0.0941 | > 10 | 28 | 53.3 | 296 | > 10 | > 3000 | 1.41 | > 1000 | 2.89 | 236 | > 10 | 676 | > 10 | 2.61 | –
SNU-5 (Gastric Carcinoma) | > 10 | 1850 | 81.1 | > 10 | > 300 | > 1000 | > 2000 | > 1 | > 1000 | 6.92 | > 3000 | > 1000 | > 10 | > 10 | 18.1 | > 1000 | > 1000 | > 10 | > 3000 | 0.0869 | 7.44 | 1.31 | > 1000 | > 10 | > 10000 | 2.57 | > 10 | > 10
TCCSUP (Bladder Carcinoma) | > 10 | 2310 | > 1000 | > 10 | > 300 | > 1000 | > 2000 | > 1 | > 1000 | 201 | > 3000 | > 1000 | > 10 | > 10 | 165 | > 1000 | > 1000 | > 10 | > 3000 | > 10 | > 1000 | 8.38 | > 1000 | > 10 | > 10000 | > 10 | > 10 | –
